This note sets out measurements from patent US11661400B2, “NADPH oxidase inhibitors, pharmaceutical composition comprising the same, and application thereof” (TAIWANJ PHARMACEUTICALS CO., LTD., priority 2018, dated 2023).

In one experiment the target is T1, NOX2 (Homo sapiens, UniProt P04839).
T1 construct: HL-60 cells, rich in NOX2 expression; endogenous in cells; host or cells: DMSO-differentiated HL-60
T1 sequence (P04839 2-570 limits assumed): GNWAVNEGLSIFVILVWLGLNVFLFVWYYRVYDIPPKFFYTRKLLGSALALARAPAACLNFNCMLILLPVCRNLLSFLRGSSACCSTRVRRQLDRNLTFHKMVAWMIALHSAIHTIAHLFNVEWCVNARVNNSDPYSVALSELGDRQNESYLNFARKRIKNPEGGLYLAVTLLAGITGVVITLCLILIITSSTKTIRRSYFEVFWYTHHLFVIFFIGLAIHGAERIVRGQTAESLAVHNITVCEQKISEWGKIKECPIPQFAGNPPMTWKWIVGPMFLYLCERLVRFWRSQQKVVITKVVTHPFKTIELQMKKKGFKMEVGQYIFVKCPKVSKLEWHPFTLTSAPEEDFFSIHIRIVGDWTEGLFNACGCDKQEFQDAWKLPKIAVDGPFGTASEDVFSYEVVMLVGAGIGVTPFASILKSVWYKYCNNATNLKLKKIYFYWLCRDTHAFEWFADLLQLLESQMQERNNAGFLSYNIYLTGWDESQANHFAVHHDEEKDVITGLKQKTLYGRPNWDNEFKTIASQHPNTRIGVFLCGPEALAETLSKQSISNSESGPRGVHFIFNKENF
T1 sequence (P13498 2-195 partner limits assumed): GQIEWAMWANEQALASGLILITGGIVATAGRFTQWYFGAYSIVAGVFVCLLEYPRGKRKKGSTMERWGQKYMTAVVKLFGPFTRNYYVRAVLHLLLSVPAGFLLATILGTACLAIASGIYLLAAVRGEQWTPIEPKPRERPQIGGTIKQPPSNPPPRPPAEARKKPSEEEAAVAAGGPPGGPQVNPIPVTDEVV
Description: NOX2 HL60 cell-based assay (PMA oxidative burst, L012 chemiluminescence). The following applies: DMSO-differentiated HL-60 cells, PMA-stimulated; for inhibition at 0.1 µM: HL-60, 100 nM; for inhibition at 1 µM: HL-60, 1000 nM. Here is the method:
NOX2 HL60 Cell-Based Assay:
HL-60 cells, rich in NOX2 expression, was stimulated to undergo oxidative burst by phorbol myristate acetate (PMA). The ROS produced during this process was measured using the O2^−-specific chemiluminescent probe L012. L012 was added to DMSO-differentiated HL-60 cell suspensions to a final concentration of 100 μM. Then, 80 μL aliquots of cell suspension (2.5×10^5 cells) were transferred to individual wells of a 96-well plate. Test compounds were directly added to the wells at the specified concentrations. Following a 30-60 mins incubation at 37° C. in the dark, the oxidative burst was initiated by the addition of 10 ng/mL PMA, and the chemiluminescence signal was recorded every 5 min over a period of 60 mins in a SpectraMax i3 Multiplate reader (Molecular Devices, Sunnyvale, Calif., USA). • NOX4 HEK293 Overexpression Cell-Based Assay: […]

The target of the next experiment is T2, NOX1 (Homo sapiens, UniProt Q9Y5S8).
T2 construct: endogenous in cells; host or cells: HT29
T2 sequence (Q9Y5S8 1-564): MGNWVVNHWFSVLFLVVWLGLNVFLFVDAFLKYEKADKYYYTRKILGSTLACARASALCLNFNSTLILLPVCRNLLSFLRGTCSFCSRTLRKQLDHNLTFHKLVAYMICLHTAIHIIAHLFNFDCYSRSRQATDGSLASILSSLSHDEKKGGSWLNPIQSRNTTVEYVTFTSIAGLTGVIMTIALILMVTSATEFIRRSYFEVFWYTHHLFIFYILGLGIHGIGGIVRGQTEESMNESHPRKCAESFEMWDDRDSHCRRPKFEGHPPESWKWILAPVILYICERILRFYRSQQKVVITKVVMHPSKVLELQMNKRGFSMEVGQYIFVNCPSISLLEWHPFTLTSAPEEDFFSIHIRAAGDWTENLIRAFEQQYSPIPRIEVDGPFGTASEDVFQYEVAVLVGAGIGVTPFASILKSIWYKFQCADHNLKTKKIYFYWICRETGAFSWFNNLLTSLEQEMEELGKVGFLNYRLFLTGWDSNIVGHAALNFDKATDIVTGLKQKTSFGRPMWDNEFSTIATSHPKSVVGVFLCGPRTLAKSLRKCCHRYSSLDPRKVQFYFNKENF
T2 sequence (P13498 2-195 partner limits assumed): T1 sequence (P13498 2-195 partner limits assumed)
Description: NOX1 HT29 cell-based assay (luminol/HRP luminescence). The following applies: HT29 cells, DMSO = 0%, GKT137831 = 100%; for inhibition at 0.1 µM / inhibition at 1 µM: HT-29. The protocol:
NOX1 HT29 Cell-Based Assay:
HT29 cells were cultured in T75 flask (Corning) and when 70-80% confluence was reached, cells were trypsinized, harvested in HBSS and counted. 1-2×10^5 cells were dispensed into individual wells in 70 μl final volume (96-well plates, white Corning). Cells were treated for 30-60 mins at 37° C. with 10 μl of GKT137831, DMSO and test compounds from their respective assay plates. This will correspond to a final concentration of 100 nM, 1000 nM GKT137831 or test compounds, and 0.1% DMSO. 20 μL of a mixture containing 100 μM luminol plus 0.4 units of HRP (final concentration) was added. Luminescence was quantified using a SpectraMax i3 Multiplate reader (Molecular Devices, Sunnyvale, Calif., USA). As designed, compounds that inhibit NOX1 activity will reduce cellular ROS production, leading to reduced probe-ROS interactions and reduced well luminescence. Compounds were tested in duplicate at a concentration of 100 nM and 1000 nM. DMSO and GKT137831 wells were applied as negative and positive controls, and the activities measured were set to 0% and 100%, respectively.

The target in the next experiment is T3, NOX4 (Homo sapiens, UniProt Q9NPH5).
T3 construct: expressed in transfected cells
T3 sequence (Q9NPH5 1-578): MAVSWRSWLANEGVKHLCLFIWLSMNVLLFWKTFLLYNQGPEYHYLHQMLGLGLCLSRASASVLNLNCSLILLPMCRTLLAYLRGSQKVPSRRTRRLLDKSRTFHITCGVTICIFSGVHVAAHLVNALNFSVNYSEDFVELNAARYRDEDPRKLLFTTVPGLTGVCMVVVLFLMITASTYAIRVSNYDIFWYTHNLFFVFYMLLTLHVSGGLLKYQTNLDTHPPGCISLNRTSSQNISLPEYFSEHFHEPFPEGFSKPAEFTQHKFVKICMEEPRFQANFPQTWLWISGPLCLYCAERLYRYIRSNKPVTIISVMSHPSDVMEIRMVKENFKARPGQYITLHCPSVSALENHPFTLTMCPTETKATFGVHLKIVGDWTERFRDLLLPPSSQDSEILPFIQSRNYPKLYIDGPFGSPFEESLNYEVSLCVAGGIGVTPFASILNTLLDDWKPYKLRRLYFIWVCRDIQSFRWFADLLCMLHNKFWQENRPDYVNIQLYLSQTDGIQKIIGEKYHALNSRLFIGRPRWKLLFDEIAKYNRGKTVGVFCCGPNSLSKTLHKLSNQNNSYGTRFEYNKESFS
T3 sequence (P13498 2-195 partner limits assumed): T1 sequence (P13498 2-195 partner limits assumed)
As to the kind of experiment: NOX4 HEK293 overexpression cell-based assay (Amplex Red H2O2). Particulars: HEK293 cells stably overexpressing NOX4, DMSO = 0, GKT137831 = 100; for inhibition at 1 µM: HEK293, 1000 nM. The protocol: Extracellular H2O2 measurement using Amplex™ Red Hydrogen Peroxide/Peroxidase Assay Kit (Catalog number: A22188; Invitrogen, Carlsbad, Calif., USA) was used to detect extracellular H2O2 release by HEK293 cells stably overexpressing NOX4. NOX4 clonal cells in log-phase growth were trypsinized, washed, and dispersed thoroughly. Following trypsinization, the cells (3×10^4) were resuspended in 100 μL of 1× Krebs-Ringer phosphate glucose (KRPG) buffer containing various concentrations of GKT137831 or test compounds and incubated at 37° C. for 30 min. Cells were mixed with 100 μL of Amplex Red reagent solution containing 50 μM Amplex Red and 0.1 units/mL of HRP in KRPG buffer; each assay condition was evaluated induplicate. The samples were incubated at 37° C. for 90 mins in the dark, and then centrifuged at 2,500 g for 5 mins. The supernatants were loaded to a 96 well plate, and then measured using a SpectraMax i3 Multiplate reader (Molecular Devices, Sunnyvale, Calif., USA) at 530 nm excitation and 590 nm emission respectively. DMSO and GKT137831 wells were applied as negative and positive controls, and the activities measured were set to 0 and 100, respectively.

The term inhibition denotes how much of the control response was suppressed. Turning to `COc1cc2[nH]c(-c3ccccc3OC)c(O)c(=O)c2cc1OC` [Compound 5], the “% Inhibition NOX2” value on NOX2 (1000 nM) is on record as “A (the percent of inhibition of NOX by the compounds is larger than or equals to 80%)”. For the same compound, the inhibition at 0.1 µM against NOX2 was ≤ 19%. Besides, the “% Inhibition NOX1” value on NOX1 (100 nM) and at NOX1 (1000 nM) was “A (the percent of inhibition of NOX by the compounds is larger than or equals to 80%)” throughout. Also, the entries for the “% Inhibition NOX4” value on NOX4 (100 nM) and on NOX4 (1000 nM) were “C (the percent of inhibition of NOX by the compounds ranges from 2000 to 49%)” and “A (the percent of inhibition of NOX by the compounds is larger than or equals to 80%)”, respectively.
In the case of `COc1cc2[nH]c(-c3ccc(Cl)cc3Cl)c(O)c(=O)c2cc1OC` [Compound 49], the “% Inhibition NOX2” value at NOX2 (1000 nM) is given as “A (the percent of inhibition of NOX by the compounds is larger than or equals to 80%)”. Further, the inhibition at 0.1 µM against NOX2 was ≤ 19%. For the same compound, the “% Inhibition NOX1” value on NOX1 (100 nM) and at NOX1 (1000 nM) was “A (the percent of inhibition of NOX by the compounds is larger than or equals to 80%)” each time. For the same compound, the “% Inhibition NOX4” value was “C (the percent of inhibition of NOX by the compounds ranges from 2000 to 49%)” at NOX4 (100 nM) and “B (the percent of inhibition of NOX by the compounds ranges from 50% o to 79% o)” on NOX4 (1000 nM).
Regarding `COc1ccccc1-c1[nH]c2cc3c(cc2c(=O)c1O)OCO3` [Compound 26], the inhibition at 0.1 µM against NOX2 was 50 to 79%; against NOX1 (100 nM), ≥ 80%. Further, the inhibition at 1 µM at NOX2, against NOX1 (1000 nM) and against NOX4 was ≥ 80% each time. The “% Inhibition NOX4” value on NOX4 (100 nM) was “C (the percent of inhibition of NOX by the compounds ranges from 2000 to 49%)”.
With `COc1cc2[nH]c(-c3ccc(Cl)cc3Cl)c(O)c(=O)c2cc1OC` [Compound 24], at NOX2 (100 nM, 0.1 µM), the “% Inhibition NOX2” value is given as “C (the percent of inhibition of NOX by the compounds ranges from 2000 to 49%)”. In addition, the figures for the inhibition at 1 µM at NOX2, on NOX1 (1000 nM) and against NOX4 were ≥ 80%, ≥ 80% and 50 to 79%, respectively. Besides, the inhibition at 0.1 µM against NOX1 (100 nM) is ≥ 80%. In addition, the “% Inhibition NOX4” value at NOX4 (100 nM) is “C (the percent of inhibition of NOX by the compounds ranges from 2000 to 49%)”.
Regarding `COc1cc2[nH]c(-c3ccc(Cl)cc3)c(O)c(=O)c2cc1OC` [Compound 45], the “% Inhibition NOX2” value on NOX2 (100 nM) and at NOX2 (1000 nM) was “D (the percent of inhibition of NOX by the compounds is smaller than or equals to 19% o)” throughout. In addition, at NOX1 (1000 nM), the “% Inhibition NOX1” value is “A (the percent of inhibition of NOX by the compounds is larger than or equals to 80%)”. At NOX1 (100 nM), the inhibition at 0.1 µM was ≤ 19%. Also, the “% Inhibition NOX4” value at NOX4 (100 nM, 0.1 µM) is “C (the percent of inhibition of NOX by the compounds ranges from 2000 to 49%)”; on NOX4 (1000 nM), “B (the percent of inhibition of NOX by the compounds ranges from 50% o to 79% o)”.
Consider `COc1cc2[nH]c(-c3ccc(N4CCCC4)cc3)c(O)c(=O)c2cc1OC` [Compound 11], for which the inhibition at 0.1 µM at NOX2 and on NOX1 (100 nM) was ≤ 19% throughout. The inhibition at 1 µM was ≤ 19% on NOX2, 50 to 79% at NOX1 (1000 nM) and ≥ 80% against NOX4. On NOX4 (100 nM), the “% Inhibition NOX4” value is recorded as “C (the percent of inhibition of NOX by the compounds ranges from 2000 to 49%)”.
Regarding `COc1cc2[nH]c(-c3ccccc3[N+](=O)[O-])c(O)c(=O)c2cc1OC` [Compound 29, 3-hydroxy-6,7-dimethoxy-2-(2-nitrophenyl) quinolin-4(1H)-one 2,2,2-trifluoroacetate], the “% Inhibition NOX2” value on NOX2 (100 nM) was “C (the percent of inhibition of NOX by the compounds ranges from 2000 to 49%)”. Further, the inhibition at 1 µM on NOX2 is ≥ 80%; against NOX1 (1000 nM), ≥ 80%; at NOX4 it was 50 to 79%. Moreover, the inhibition at 0.1 µM against NOX1 (100 nM) is ≥ 80%; against NOX4 (HEK293, 100 nM), 50 to 79%.
